Results: ChEMBL document CHEMBL1145323, “Synthesis and biological activity of amide derivatives of nimbolide” (Bioorg Med Chem Lett, 2006)

Assays:
Assay type in all cases: functional, cell-based; call rule not given here
HT-29 = experiment: Antiproliferative activity against human HT29 cell line
SW-60 = experiment: Antiproliferative activity against […]
HOP-62 = experiment: Antiproliferative activity against human HOP62 cell line
A549 = experiment: Antiproliferative activity against human A549 cell line
PC-3 = experiment: Antiproliferative activity against human PC3 cell line
OVCAR-5 = experiment: Antiproliferative activity against human OVCAR5 cell line
[1] = Homo sapiens, HT-29, read-out: IC50
[2] = Homo sapiens, PC-3, read-out: IC50
[3] = Homo sapiens, OVCAR-5, read-out: IC50
[4] = Homo sapiens, SW-60, read-out: IC50
[5] = Homo sapiens, A549, read-out: IC50
[6] = Homo sapiens, HOP-62, read-out: IC50

SMILES: COC(=O)C[C@H]1[C@]2(C)C3=C(C)[C@H](c4ccoc4)C[C@H]3O[C@@H]2[C@H](O)[C@@H]2[C@]1(C)C(=O)C=C[C@@]2(C)C(=O)NC(C)c1ccccc1 (stereo partly specified)
- IC50 (HT-29; [1]): 47.2 µM
- IC50 (SW-60; sw-60): Not Active
- IC50 (HOP-62; hop-62): Not Active
- IC50 (A549; a549): Not Active
- IC50 (PC-3; [2]): 43.1 µM
- IC50 (OVCAR-5; [3]): 89.2 µM

SMILES: COC(=O)C[C@H]1[C@]2(C)C3=C(C)[C@H](c4ccoc4)C[C@H]3O[C@@H]2[C@H](O)[C@@H]2[C@]1(C)C(=O)C=C[C@@]2(C)C(=O)N1CCOCC1
- IC50 (HT-29; [1]): 3.38 µM
- IC50 (SW-60; [4]): 5.72 µM
- IC50 (HOP-62; hop-62): Not Active
- IC50 (A549; a549): Not Active
- IC50 (PC-3; [2]): 2.26 µM
- IC50 (OVCAR-5; [3]): 2.11 µM

SMILES: COC(=O)C[C@H]1[C@]2(C)C3=C(C)[C@H](c4ccoc4)C[C@H]3O[C@@H]2[C@H](O)[C@@H]2[C@]1(C)C(=O)C=C[C@@]2(C)C(=O)N1CCCCC1
- IC50 (HT-29; [1]): 91.5 µM
- IC50 (SW-60; sw-60): Not Active
- IC50 (HOP-62; hop-62): Not Active
- IC50 (A549; [5]): 78.3 µM
- IC50 (PC-3; [2]): 48.2 µM
- IC50 (OVCAR-5; [3]): 62.3 µM

SMILES: COC(=O)C[C@H]1[C@]2(C)C3=C(C)[C@H](c4ccoc4)C[C@H]3O[C@@H]2[C@H](O)[C@@H]2[C@]1(C)C(=O)C=C[C@@]2(C)C(=O)NCc1ccccc1
- IC50 (HT-29; [1]): 43.2 µM
- IC50 (SW-60; sw-60): Not Active
- IC50 (HOP-62; [6]): 26.3 µM
- IC50 (A549; a549): Not Active
- IC50 (PC-3; pc-3): Not Active
- IC50 (OVCAR-5; [3]): 82.4 µM

SMILES: COC(=O)C[C@H]1[C@]2(C)C3=C(C)[C@H](c4ccoc4)C[C@H]3O[C@@H]2[C@H](O)[C@@H]2[C@]1(C)C(=O)C=C[C@@]2(C)C(=O)NC(C(=O)OC)c1ccccc1 (stereo partly specified)
- IC50 (HT-29; [1]): 8.62 µM
- IC50 (SW-60; sw-60): Not Active
- IC50 (HOP-62; [6]): 13.5 µM
- IC50 (A549; a549): Not Active
- IC50 (PC-3; [2]): 8.11 µM
- IC50 (OVCAR-5; ovcar-5): Not Active

SMILES: COC(=O)C[C@H]1[C@]2(C)C3=C(C)[C@H](c4ccoc4)C[C@H]3O[C@@H]2[C@H](O)[C@@H]2[C@]1(C)C(=O)C=C[C@@]2(C)C(=O)NCc1ccc(C(F)(F)F)cc1
- IC50 (HT-29; [1]): 17.5 µM
- IC50 (SW-60; [4]): 26.4 µM
- IC50 (HOP-62; [6]): 14.1 µM
- IC50 (A549; [5]): 37.3 µM
- IC50 (PC-3; [2]): 32.3 µM
- IC50 (OVCAR-5; ovcar-5): Not Active

SMILES: COC(=O)C[C@H]1[C@]2(C)C3=C(C)[C@H](c4ccoc4)C[C@H]3O[C@@H]2[C@H](O)[C@@H]2[C@]1(C)C(=O)C=C[C@@]2(C)C(=O)NCc1ccc(F)cc1
- IC50 (HT-29; [1]): 78.1 µM
- IC50 (SW-60; sw-60): Not Active
- IC50 (HOP-62; hop-62): Not Active
- IC50 (A549; a549): Not Active
- IC50 (PC-3; pc-3): Not Active
- IC50 (OVCAR-5; [3]): 84.1 µM

SMILES: COC(=O)C[C@H]1[C@]2(C)C3=C(C)[C@H](c4ccoc4)C[C@H]3O[C@@H]2[C@H](O)[C@@H]2[C@]1(C)C(=O)C=C[C@@]2(C)C(=O)NCc1ccc(OC)cc1
- IC50 (HT-29; ht-29): Not Active
- IC50 (SW-60; sw-60): Not Active
- IC50 (HOP-62; [6]): 102 µM
- IC50 (A549; a549): Not Active
- IC50 (PC-3; [2]): 21.5 µM
- IC50 (OVCAR-5; [3]): 93.1 µM

SMILES: COC(=O)C[C@H]1[C@]2(C)C3=C(C)[C@H](c4ccoc4)C[C@H]3O[C@@H]2[C@H](O)[C@@H]2[C@]1(C)C(=O)C=C[C@@]2(C)C(=O)NCc1cccc(OC)c1
- IC50 (HT-29; [1]): 63.1 µM
- IC50 (SW-60; sw-60): Not Active
- IC50 (HOP-62; [6]): 79.2 µM
- IC50 (A549; a549): Not Active
- IC50 (PC-3; pc-3): Not Active
- IC50 (OVCAR-5; ovcar-5): Not Active

SMILES: COC(=O)C[C@H]1[C@]2(C)C3=C(C)[C@H](c4ccoc4)C[C@H]3O[C@@H]2[C@H](O)[C@@H]2[C@]1(C)C(=O)C=C[C@@]2(C)C(=O)NCC(C)C
- IC50 (HT-29; [1]): 0.05 µM
- IC50 (SW-60; [4]): 0.08 µM
- IC50 (HOP-62; [6]): 4.83 µM
- IC50 (A549; a549): Not Active
- IC50 (PC-3; [2]): 7.43 µM
- IC50 (OVCAR-5; [3]): 1.53 µM

SMILES: COC(=O)C[C@H]1[C@]2(C)C3=C(C)[C@H](c4ccoc4)C[C@H]3O[C@@H]2[C@@H]2OC(=O)[C@]3(C)C=CC(=O)[C@@]1(C)[C@@H]23 [NIMBOLIDE]
- IC50 (HT-29; [1]): 6.94 µM
- IC50 (SW-60; [4]): 8.25 µM
- IC50 (HOP-62; [6]): 10.4 µM
- IC50 (A549; [5]): 15.6 µM
- IC50 (PC-3; [2]): 4.59 µM
- IC50 (OVCAR-5; [3]): 4.17 µM
